Where “and” joins values, the source holds several entries; their conditions need not be identical. Identical values can stand only once.
What was measured:
Type in all cases: physicochemical
[1] = crystal form I stability test (HPLC purity and XRPD after storage); settings: for chemical and physical stability (result in words): 40° C./75% RH and 60° C. for 14 days, HPLC purity and XRPD
Experimental: X-ray powder diffractometer: Bruker D8 advance X, the radiation source is Cu-Ku, the scanning range of the test is 3° (2θ)˜40° (2θ), the scanning step size is 0.02° (2θ), and the scanning rate is 0.3 sec/step. HPLC (purity determination): Waters Acquity Arc liquid chromatography system or any equivalent; Column: EclipsexDB C18, 4.6×150 mm, 3.5 μm, or any equivalent; Column temperature: 30° C.; detection wavelength: 210 nm; mobile phase A: 0.05% trifluoroacetic acid aqueous solution; mobile phase B: 0.05% trifluoroacetic acid acetonitrile solution; concentration gradient running time: 20 minutes. Two samples of the crystal form I were placed under the conditions of 40° C./75% relative humidity (RH), and the temperature in the oven was 60° C. (with humidity not controlled) for 14 days.

[2] = thermogravimetric analysis (TGA) test; settings: heated to 200° C.
Excerpt: Thermogravimetric analysis (TGA) is a common method for determining the thermal stability of compounds. Herein, TGA is also used to determine the hydration state of a compound. The rate of temperature rise during the test have a certain impact on the pattern. For example, an excessively high rate of temperature rise is not conducive to the detection of intermediate products. TGA patterns can be measured, for example, on a model TA TGA Q500 instrument. In one embodiment, the thermogravimetric analysis pattern of the crystal form I is determined by the following method: TGA thermogravimetric analyzer: TA TGA Q500; temperature range: room temperature ˜350° C.; scanning rate: 10° C./min; protective gas: nitrogen; flow rate: 40 mL/min (balance) or […] (sample). TGA Thermogravimetric Analyzer: TA TGA Q500, temperature range is from room temperature to 350° C., scanning rate is 10° C./min, the protective gas is nitrogen, and the flow rate is 40 mL/min (balance) or 60 mL/min (sample).

[3] = dynamic vapor sorption (DVS) test; settings: for hygroscopicity (result in words): DVS
Excerpt: Dynamic Vapor Sorption (DVS) is a common method to investigate the moisture adsorption of drugs, excipients or packaging materials through a dynamically accelerated moisture adsorption process. The moisture adsorption isotherm is usually used to describe the degree of correlation between the moisture content of the sample and the relative humidity during the moisture adsorption process of the sample. DVS patterns can be measured, for example, on a model IGAsorp instrument. In one embodiment, the dynamic vapor sorption pattern of the crystal form I is determined by the following method: DVS dynamic vapor sorption instrument: IGAsorp; temperature: 25° C.; temperature stability: 0.1° C./min; carrier gas: nitrogen; flow rate: 250 mL/min; scanning: 2; minimum time: 30 min; maximum time: 2 hours; upper waiting limit: 98%; humidity gradient: adsorption: 0, 10, 20, 30, 40, 50, 60, 70, 80, 90; desorption: 80, 70, 60, 50, 40, 30, 20, 10, 0. DVS Dynamic Vapor Sorption Apparatus: IGAsorb, the temperature is 25° C., the temperature stability: 0.1° C./min, the carrier gas is nitrogen, the flow rate is 250 mL/min, scanning: 2, the minimum time is 30 min, the maximum time is 2 hours, the upper waiting limit is 98%, humidity gradient: adsorption: 0, 10, 20, 30, 40, 50, 60, 70, 80, 90; desorption: 80, 70, 60, 50, 40, 30, 20, 10, 0.

[4] = particle size distribution (PSD) test
Experimental: In one embodiment, the particle size distribution (PSD) of the crystal form I is determined using a Malvern Mastersizer 2000. The parameters used may be: pump speed: 2500 rpm; dispersant volume: 800 mL; dispersant: water; dispersion medium: 1% Tween 80. Crystal form I is a granular crystal, and the particle size is 50-100 μm observed under a microscope (Nikon Eclipse LV100POL). The particle size distribution (PSD) of the crystal form I was determined using a Malvern Mastersizer 2000. Pump speed: 2500 rpm; Dispersant volume: 800 mL; Shielding degree: 10%-20%; Dispersant: water; Dispersion medium: 1% Tween 80; Background measurement: 12s; Sample measurement: 12s; Measurement cycle: 3.

[5] = test of stability against mechanical treatment (grinding, XRPD); settings: ground in a mortar for 2 min and 5 min
Experimental: In one embodiment, the stability of the crystal form I against mechanical treatment is determined by the following method: the crystal form I is placed in a mortar, ground for 2 min and 5 min respectively, and XRPD detection is carried out to analyze the solid after grinding. The crystal form I was placed in a mortar, ground for 2 min and 5 min, respectively, and XRPD detection was carried out to analyze the solid after grinding.

[6] = powder properties (bulk density, tap density, Carr index, angle of repose)
[7] = Malvern Mastersizer 2000, dispersant water, 1% Tween 80

COc1cc2c(C)c(CC(=O)N3CCOCC3)c(=O)oc2c(C=O)c1O [crystal form I]
chemical and physical stability (result in words) [1]: good chemical and physical stability | chemical and physical stability (result in words) ([1]; listed as Orin1001 crystal form I): excellent stability | HPLC purity: peak area % ([1]; 40° C./75% RH, the 7th day): 99.62% and 99.54% | HPLC purity: peak area % ([1]; 40° C./75% RH, the 14th day): 99.54% and 99.56% | HPLC purity: peak area % ([1]; 60° C. (in oven), humidity not controlled, the 7th day): 99.64% and 99.58% | HPLC purity: peak area % ([1]; 60° C. (in oven), humidity not controlled, the 14th day): 99.52% and 99.54% | HPLC purity: peak area % ([1]; TO column of the 7th day table): 99.60% and 99.58% | HPLC purity: peak area % ([1]; TO column of the 14th day table): 99.53% and 99.54% | weight loss (TGA) [2]: about 0.017% | hygroscopicity (result in words) ([3]; 25° C.): only slightly hygroscopic | hygroscopicity (result in words) ([3]; 25° C., listed as Orin1001 crystal form I): slightly hygroscopic | crystal form after DVS measurement (XRPD) ([3]; XRPD before and after DVS): did not change | weight gain (DVS) ([3]; after equilibration at 90% relative humidity, 25° C.): 0.34% | D(0.1) [4, 7]: 67.1 μm | D(0.5) [4, 7]: 115.5 μm | D(0.9) [4, 7]: 206.4 μm | particle size observed under a microscope ([4]; Nikon Eclipse LV100POL): 50-100 μm | crystal form after grinding (XRPD) [5]: the crystal form does not change | Carr index [6]: 20% | angle of repose [6]: 30.6 ° | bulk density [6]: 0.72 g/mL | fluidity (result in words) [6]: very good | tap density [6]: 0.90 g/mL

From patent US20230067666A1, “METHOD FOR PREPARING COUMARIN COMPOUNDS SUBSTITUTED BY AMIDOALKYL AT 3-POSITION, THE PRODUCTS AND RELATED INTERMEDIATES THEREOF” (Fosun Orinove PharmaTech, Inc., priority 2019, published 2023)
